Test results from patent publication US8048915B2, “Biologically active complex” (BioMas Ltd., priority 2001, dated 2011).
Where “and” joins values, the source holds several entries; their conditions need not be identical. Identical values can stand only once. Like-named read-outs stand apart in the source and are kept apart here.

Assays:
[1] = system: IL-2; conditions: 72 hours culture, 50% supernatant on CTLD cells
From the text: Culture supernatants were collected, centrifuged and tested for IL-2 activity by using 50% of the volume of the supernatant assaying their ability to support the proliferation of the IL-2 dependent cell line CTLD.

[2] = system: interleukin-2 (IL-2); conditions: single animals
Procedure: The test animals were Balb-c, male, mice, 6 to 8 weeks of age. […] The animals received the following injections:
Each of groups a, b, c and d consisted of 21 animals. The animals were sacrificed daily from 24 h to 7 days after injection. On each day, spleen cells from three of the animals from each control group were pooled together and processed by passing the spleen cells through a 60 mesh stainless steel net in a 5 mm Petri dish containing PBS in order to separate the cells. The cells were collected and centrifuged at 1000 rpm for 10 minutes. The supernatant was discarded and the cells were treated for two minutes with 5 ml of hypotonic buffer (0.15M NH4 Cl, 0.01M KHCO3 dissolved in double distilled water, pH 7.2) to kill the erythrocytes. Thereafter, PBS was added to the cells and the cells were centrifuged for 10 minutes at 1000 rpm. The cells were washed twice with PBS and counted in a hemocytometer using trypan blue to test for viability. The cells were brought to a concentration of 10^7 cells/ml using enriched RPMI containing 10% fetal calf serum (Ser Lab, Sussex, England); 5×10^−5M 2-mercaptoethanol and 3% of d-glutamine (Bio Lab Israel); stock solution 2 mM×1000 nonessential amino acids (Bio Lab, Israel); stock solution×100 and sodium pyruvate (Bio Lab, Israel) stock solution 1 mM×100. An additional three animals from each of the experimental groups were sacrificed and each of the spleens was processed separately using the same procedure.
The cell mixture was divided into two groups:
Supernatants were collected, centrifuged at 1,600 rpm for 10 minutes and stored at 4° C. until used. […] These supernatants were assayed for CSF activity. Prior to incubation of the cells, samples were removed from culture plates and smears of the cultures were made by cytocentrifugation. Slides were stained with May-Grunwald-Giemsa (1:10) solution and evaluated morphologically. A radioactive thymidine assay was used to determine IL-2 activity. Assay for IL-2 Activity • 1. Supernatants were tested for IL-2 activity by the proliferation of the IL-2 dependent cell line CTLD. The IL-2 assay is based on the growth dependence of these cultured T-cell lines on IL-2. T cells harvested from IL-2 dependent culture, washed and placed back in culture in the absence of IL-2 invariably die within 24 hr. By using tritiated thymidine incorporation (^3H-TdR) as an index of cultured T-cell replication, the IL-2 microassay provides a highly reproducible and quantitative indication of the amount of IL-2 activity in the supernatant prepared hereinabove. • 2. To assay a condition medium for IL-2 activity, a sample containing 5 x 10^4 CTLD cells, 10% fetal calf serum and 50% of supernatant in question, all were suspended in a final volume of 1 ml RPMI. Aliquots of 0.2 ml from each sample were placed in four replicate wells of 96 microwell tissue culture plates (NUNC). Conditioned medium was obtained from cultures of Charles River rat spleen cells stimulated with Con A that contained a known amount of IL-2 as a reference in all assays. • 3. The microwells were incubated for 24 hr at 37° C. after which 1 microcurie/well of ^3H-methylthymidine was added. Cells were then further incubated overnight, harvested with a cell harvester, and counted in a beta scintillator.

[3] = system: mice; conditions: 6 week old mice; preliminary
[4] = system: Ha-Ras transformed NIH-3T3 cells; test: Colony growth of Ha-Ras transformed NIH-3T3 cells; format: cell-based
Procedure: (§1) 5×10^2 cells were plated per 60 mm dish and incubated with different concentrations (0.005-5 μg/ml) of the complex in PBS. A week later, the cells were stained with Gimsa and clones were counted. Similar experiments were conducted using V-mos transformed NIH-3T3 cells, and also using Ph2TeCl2 and Ph3TeCl, with both types of transformed cells.

[5] = system: West Nile virus (WNV)
Procedure: All cultures were then infected with 10^4 PFU/plate. After 72 h incubation the supernatants were collected and the virus was titrated against Vera cells.

[6] = system: IL-2 receptors of human mononuclear cells; test: Induction of IL-2 receptors of human mononuclear cells (proliferation with recombinant IL-2, 3H thymidine uptake); format: cell-based
Procedure: Human MNC were brought to a concentration of 10^6 cells/ml. RPMI+10% FCS. Aliquots of 0.2 ml. were placed in duplicate wells of microdishes and plates were incubated at 37° C. for 24 hrs. […] Plates were further incubated for 48 hrs and labeled with ^3H thymidine 24 hrs before harvesting. The proliferation was measured by ^3HT uptake as described by Gillis et al, J. Immunol. […] The results are expressed in counts per minute.

[7] = system: IL-2 receptors; test: IL-2 receptor sites on human mononuclear cells, fluoresceinated antibody; format: cell-based; conditions: 1 μg/ml; 24 hours incubation
Procedure: This example provides an assay to detect the presence of receptor sites for IL-2. […] The cells were washed twice with PBS and then incubated with a specific fluoresceinated antibody against IL-2 receptors as described in Uchiyama et al, J. Immunol.

[8] = system: V-mos transformed NIH-3T3 cells; test: Colony growth of V-mos transformed NIH-3T3 cells; format: cell-based; conditions: one week; clones counted
Procedure: as §1

[9] = system: human mononuclear cells; test: Proliferation of human mononuclear cells (Example 14); format: cell-based; conditions: 72 hours + 24 hours label, listed as Ex. 1
Procedure: Human mononuclear cells were obtained by layering heparinized blood over a Ficoll/Hypaque gradient. The mononuclear cells were resuspended in enriched RPMI, rinsed three times and brought to a concentrations of 5×10^5cells/ml enriched RPMI. Varying concentrations of the complexes of Ex. 1 and Ex. 7(a), ranging from 0.005 μg to 5 μg/cell mixture were added to the cells. Aliquots of 0.2 ml of each sample were placed in wells of microplates (triplicates).

For `Cl[Te]1(Cl)(Cl)OCCO1.N` [Example 1, equimolar complex of TeO2 and ethylene glycol, NH4Cl salt], the “IL-2 activity, Counts per minute” value ([1]; 1 ng) was 11,000 Counts per minute, the “IL-2 activity, Counts per minute” value ([1]; 10 ng) was 1,500 Counts per minute and the “IL-2 activity, Counts per minute” value ([1]; 1 μg) was 250 Counts per minute. For the same compound, the “IL-2 activity, Counts per minute” value ([1]; 100 μg) was 280 Counts per minute, the IL-2 activity ([2]; 1 μg IP in 0.2 ml DMSO/PBS, day 1) was 25.919 CPM and 34.326 CPM and 16.718 CPM and the IL-2 activity ([2]; 1 μg IP in 0.2 ml DMSO/PBS, day 2) was 21.398 CPM and 22.050 CPM and 9.338 CPM. The IL-2 activity ([2]; 1 μg IP in 0.2 ml DMSO/PBS, day 4) was 31.999 CPM and 14.226 CPM and 17.228 CPM, the IL-2 activity ([2]; 1 μg IP in 0.2 ml DMSO/PBS, day 6) was 41.261 CPM and 80.314 CPM and 42.485 CPM and the IL-2 activity ([2]; 1 μg IP in 0.2 ml DMSO/PBS, day 7) was 66.854 CPM and 58.094 CPM and 51.268 CPM. The IL-2 activity ([2]; 10 μg IP in 0.2 ml DMSO/PBS, day 1) was 24.335 CPM and 21.193 CPM and 25.381 CPM, the IL-2 activity ([2]; 10 μg IP in 0.2 ml DMSO/PBS, day 2) was 31.901 CPM and 36.390 CPM and 22.066 CPM and the IL-2 activity ([2]; 10 μg IP in 0.2 ml DMSO/PBS, day 3) was 20.316 CPM and 18.288 CPM and 12.126 CPM. The LD50 [3] was 300 μg/25 g of body weight, the “number of colonies / growth compared with control” value ([4]; 0.005-5 μg/ml in PBS, one week, clones counted) was “major reduction in the number of colonies” and the “concentration giving the maximum effect (inhibition)” value ([4]; 0.005-5 μg/ml tested) was 0.05 µg/mL. The “reduction in virus yield” value [5] was “ten”, the “reduction of virus yield” value [5] was 40 fold and the “proliferation, 3HT uptake” value ([6]; Test A, 1 μg/ml, listed as Ex. 1) was 28625 counts per minute and 27593 counts per minute. For the same compound, the “proliferation, 3HT uptake” value ([6]; Test A, 1 × 10^−3 μg/ml, listed as Ex. 1) was 3652 counts per minute and 5055 counts per minute, the “proliferation, 3HT uptake” value ([6]; Test A, 1 × 10^−4 μg/ml, listed as Ex. 1) was 3558 counts per minute and 4047 counts per minute and the “proliferation, 3HT uptake” value ([6]; Test A, 1 × 10^−5 μg/ml, listed as Ex. 1) was 2474 counts per minute and 4063 counts per minute. The “proliferation, 3HT uptake” value ([6]; Test A, 5 × 10^−1 μg/ml, listed as Ex. 1) was 120755 counts per minute and 105943 counts per minute, the “proliferation, 3HT uptake” value ([6]; Test A, 7 × 10^−1 μg/ml, listed as Ex. 1) was 164538 counts per minute and 115195 counts per minute and the “proliferation, 3HT uptake” value ([6]; Test B, 1 μg/ml) was 23488 counts per minute. The “proliferation, 3HT uptake” value ([6]; Test B, 1 × 10^−2 μg/ml) was 6057 counts per minute, the “proliferation, 3HT uptake” value ([6]; Test B, 1 × 10^−3 μg/ml) was 5865 counts per minute and the “proliferation, 3HT uptake” value ([6]; Test B, 1 × 10^−4 μg/ml) was 4960 counts per minute. The “proliferation, 3HT uptake” value ([6]; Test B, 1 × 10^−5 μg/ml) was 7155 counts per minute, the “proliferation, 3HT uptake” value ([6]; Test B, 5 × 10^−1 μg/ml) was 66910 counts per minute and the “proliferation, 3HT uptake” value ([6]; Test B, 5 × 10^−2 μg/ml) was 5390 counts per minute. For the same compound, the “proliferation, 3HT uptake” value ([6]; Test B, 7 × 10^−1 μg/ml) was 17620 counts per minute, the “cells positive for IL-2 receptors” value [7] was 20% and the inhibition of growth [8] was “none of the complex, Ph2TeCl2 or Ph3TeCl inhibited the growth”. The “proliferation of human mononuclear cells (3H methyl-thymidine)” value ([9]; 5 μg/ml) was 5008 and 5182 and the “proliferation of human mononuclear cells (3H methyl-thymidine)” value ([9]; 1 × 10^−5 μg/ml) was 3218 and 2442.
